{"source": "paper PMC12028158", "about": "“Synthesis and In Vitro Evaluation of the Anticancer Effect of Novel Phosphonium Vindoline Derivatives” (International Journal of Molecular Sciences, 2025)", "key": {"SiHa": {"test_system": "SiHa", "experiment": "MTT antiproliferative assay", "format": "cell-based, human", "description": "(§1) The antiproliferative properties of the tested compounds were additionally determined using the MTT assay against a panel of human adherent cancer cell lines isolated from breast (MCF-7 and MDA-MB-231), cervical (HeLa and SiHa), and ovarian (A2780) tumors and also on the NIH/3T3 fibroblast cell line (Table 3). IC50 values were calculated from a wider concentration range (0.1–30 μM) when higher than 50% cell growth inhibition was obtained at 10 μM (Table 4). Cisplatin was used as a reference compound. […] The noncancerous fibroblast cell line NIH/3T3 was used to gather preliminary data regarding the cancer selectivity of vindolin derivatives. […] The tumor selectivity of compound 9g, expressed as the ratio of IC50 on cancer cells and fibroblasts, is substantially higher than that of cisplatin (Table 4).\n(§2) The antiproliferative effects of the prepared derivatives were evaluated in vitro using the MTT assay against a panel of human adherent cancer cell lines, including breast (MDA-MB-231, MCF-7), cervical (SiHa, HeLa), and ovarian (A2780) cancer cells. The noncancerous fibroblast cell line NIH/3T3 was included to obtain data concerning the tumor selectivity of the test substances. All cell lines were sourced from the European Collection of Cell Cultures (Salisbury, UK), except for SiHa (American Tissue Culture Collection (Manassas, VA, USA). All cell lines were maintained in Eagle’s Minimal Essential Medium (EMEM) supplemented with 10% fetal bovine serum (FBS), 1% non-essential amino acids, and a mixture of penicillin, streptomycin, and amphotericin B. The cells were maintained in a humidified atmosphere containing 5% CO2 at 37 °C. The media and the cell culture supplements were procured from Capricorn Scientific Ltd. (Ebsdorfergrund, Germany). Cells were seeded into 96-well microplates at 5000/well and, the next day, treated with vindoline derivatives at two concentrations (10 or 30 μM) for 72 h under cell culturing conditions. […] When higher than 50% cell growth inhibition was observed, the assay was repeated using a wide concentration range (0.1–30 μM). The IC50 values were calculated using GraphPad Prism software 10.3.1 (GraphPad Software, San Diego, CA, USA). Two independent experiments were performed with at least five replicates per condition."}, "MCF-7": {"test_system": "MCF-7", "experiment": "MTT antiproliferative assay", "format": "cell-based, human", "description": "as §1, §2"}, "A2780": {"test_system": "A2780", "experiment": "MTT antiproliferative assay", "format": "cell-based, human", "description": "as §1, §2"}, "MDA-MB-231": {"test_system": "MDA-MB-231", "experiment": "MTT antiproliferative assay", "format": "cell-based, human", "description": "as §1, §2"}, "[1]": {"test_system": "panel of human adherent cancer cell lines", "experiment": "MTT antiproliferative assay, whole cancer panel", "format": "cell-based", "settings": "Homo sapiens", "description": "as §1, §2"}, "A2780 cells": {"test_system": "A2780 cells", "experiment": "Cell cycle analysis (propidium iodide flow cytometry)", "format": "cell-based, human", "description": "Based on its promising IC50 and selectivity, compound 9g was selected for further investigations, including cell cycle analysis. Treatment with derivative 9g induced concentration- and time-dependent cell cycle disturbances in A2780 ovarian cancer cells, accompanied by apoptosis (Figure 3). […] After a 48 h exposure, the lower concentration maintained this pattern (G0/G1 elevation and S and G2/M reduction).\nA2780 cells were seeded onto 12-well plates at densities of 200,000 cells per well and the plates were then incubated overnight under standard cell culture conditions. Then, the media were removed and the cells in each well were washed with phosphate-buffered saline (PBS) and treated with 1000 µL of fresh medium containing 1.5 or 3.0 µM of compound 9g for 24 or 48 h. After the incubation, the cells were washed with PBS and harvested using trypsinization. The cell suspensions were centrifuged at 1100 rpm for 5 min at room temperature. The cells were rewashed and fixed in 500 µL of cold 70% ethanol for 30 min. Following the fixation, cells were centrifuged at 1300 rpm for 5 min at 4 °C and the pellets were resuspended in 300 µL staining solution (containing 10 µg/mL propidium iodide, 0.1% Triton-X, 0.1% sodium citrate, and 10 µg/mL RNase-A in water). The samples were stored in the dark at room temperature for 30 min. The stained cells were then analyzed using a flow cytometer (CytoFLEX, Beckman Coulter, Brea, CA, USA), recorded by CytExpert Software 2.5.0.77 (Beckman Coulter), ensuring that at least 20,000 events per sample were evaluated. The percentages of cells in different phases of the cell cycle (subG1, G1, S, and G2/M) were determined using ModFit LT 3.3.11 software (Verity Software House, Topsham, ME, USA); the subG1 fraction indicated the apoptotic cell population, as referenced by Vermes et al.. […]"}}}
{"smiles": "CC[C@]12C=CCN3CC[C@@]4(c5ccc(OC)cc5N(C)[C@H]4[C@@](O)(C(=O)OC)[C@@H]1OC(=O)CCC[P+](c1ccccc1)(c1ccccc1)c1ccccn1)[C@@H]32", "note": "[9g]", "values": [{"measurement": "inhibition at 10 µM", "setting": "SiHa; Homo sapiens, SiHa, 10 μM, 72 h, read-out: Growth Inhibition (%) ± SEM", "value": "62.5 ± 0.87", "unit": "%"}, {"measurement": "inhibition at 30 µM", "setting": "SiHa; Homo sapiens, SiHa, 30 μM, 72 h, read-out: Growth Inhibition (%) ± SEM (converted)", "value": 83.8, "unit": "%"}, {"measurement": "IC50", "setting": "SiHa; Homo sapiens, SiHa, MTT, 72 h, read-out: IC50 Value (μM) ± SEM", "value": "2.42 ± 0.05", "unit": "µM"}, {"measurement": "Selectivity Ratio", "setting": "SiHa; ratio of IC50 on SiHa cells and NIH/3T3 fibroblasts", "value": 0.17}, {"measurement": "inhibition at 10 µM", "setting": "MCF-7; Homo sapiens, MCF7, MCF-7, 10 μM, 72 h, read-out: Growth Inhibition (%) ± SEM", "value": "81.9 ± 0.84", "unit": "%"}, {"measurement": "inhibition at 30 µM", "setting": "MCF-7; Homo sapiens, MCF7, MCF-7, 30 μM, 72 h, read-out: Growth Inhibition (%) ± SEM (converted)", "value": 89.9, "unit": "%"}, {"measurement": "IC50", "setting": "MCF-7; Homo sapiens, MCF7, MCF-7, MTT, 72 h, read-out: IC50 Value (μM) ± SEM", "value": "2.56 ± 0.1", "unit": "µM"}, {"measurement": "Selectivity Ratio", "setting": "MCF-7; ratio of IC50 on MCF-7 cells and NIH/3T3 fibroblasts", "value": 0.18}, {"measurement": "inhibition at 10 µM", "setting": "A2780; Homo sapiens, A2780, 10 μM, 72 h, read-out: Growth Inhibition (%) ± SEM", "value": "79.4 ± 2.63", "unit": "%"}, {"measurement": "inhibition at 30 µM", "setting": "A2780; Homo sapiens, A2780, 30 μM, 72 h, read-out: Growth Inhibition (%) ± SEM (converted)", "value": 85.5, "unit": "%"}, {"measurement": "IC50", "setting": "A2780; Homo sapiens, A2780, MTT, 72 h, read-out: IC50 Value (μM) ± SEM", "value": "1.5 ± 0.2", "unit": "µM"}, {"measurement": "Selectivity Ratio", "setting": "A2780; ratio of IC50 on A2780 cells and NIH/3T3 fibroblasts", "value": 0.10}, {"measurement": "inhibition at 10 µM", "setting": "MDA-MB-231; Homo sapiens, MDA-MB-231, 10 μM, 72 h, read-out: Growth Inhibition (%) ± SEM", "value": "72.04 ± 0.35", "unit": "%"}, {"measurement": "inhibition at 30 µM", "setting": "MDA-MB-231; Homo sapiens, MDA-MB-231, 30 μM, 72 h, read-out: Growth Inhibition (%) ± SEM (converted)", "value": 87.7, "unit": "%"}, {"measurement": "IC50", "setting": "MDA-MB-231; Homo sapiens, MDA-MB-231, MTT, 72 h, read-out: IC50 Value (μM) ± SEM", "value": "3.35 ± 0.12", "unit": "µM"}, {"measurement": "Selectivity Ratio", "setting": "MDA-MB-231; ratio of IC50 on MDA-MB-231 cells and NIH/3T3 fibroblasts", "value": 0.23}, {"measurement": "inhibition at 10 µM", "setting": "[1]; 10 μM, against all tested cancer cells, read-out: cell growth inhibition", "value": "> 60", "unit": "%"}, {"measurement": "IC50", "setting": "[1]; range over the cancer cells", "value": "1500 to 6480", "unit": "nM"}, {"measurement": "S and G2/M phase populations", "setting": "A2780 cells; A2780, 1.5 μM and 3.0 μM, 24 h", "value": "decreasing"}, {"measurement": "proportion of cells in the G0/G1 phase", "setting": "A2780 cells; A2780, 1.5 μM and 3.0 μM, 24 h", "value": "significantly increased"}, {"measurement": "subG1 cell population", "setting": "A2780 cells; A2780, particularly after the more prolonged exposure (48 h)", "value": "remarkable increase"}]}
